Measured values as given in patent publication US20240366589A1, “NHE3-BINDING COMPOUNDS AND METHODS FOR INHIBITING PHOSPHATE TRANSPORT” (Ardelyx, Inc., priority 2013, published 2024).

Columns and labels:
[1] = molecular target: T1, Rat NHE3 (Rattus norvegicus, UniProt P26433); assay: Cell-based NHE3 activity under prompt conditions (OK cells, BCECF pH recovery), rat NHE3; conditions: prompt conditions
T1 construct: expressed in transfected cells; host or cells: Opossum kidney (OK) cells (ATCC), electroporation
Procedure, shortened: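 Read-out: initial rate of BCECF-reported intracellular pH recovery via Na+/H+ antiport, fitted to pIC50. Opossum kidney cells transfected with rat or human NHE3; NH4Cl prepulse with 5 μM BCECF-AM, 30 min RT; Na+-free choline buffer 10 min.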

[2] = molecular target: T2, Human NHE3 (Homo sapiens, UniProt P48764); assay: Cell-based NHE3 activity under prompt conditions (OK cells, BCECF pH recovery), human NHE3; conditions: prompt conditions
T2 construct: expressed in transfected cells; host or cells: Opossum kidney (OK) cells (ATCC), electroporation
T2 sequence (P48764 26-834): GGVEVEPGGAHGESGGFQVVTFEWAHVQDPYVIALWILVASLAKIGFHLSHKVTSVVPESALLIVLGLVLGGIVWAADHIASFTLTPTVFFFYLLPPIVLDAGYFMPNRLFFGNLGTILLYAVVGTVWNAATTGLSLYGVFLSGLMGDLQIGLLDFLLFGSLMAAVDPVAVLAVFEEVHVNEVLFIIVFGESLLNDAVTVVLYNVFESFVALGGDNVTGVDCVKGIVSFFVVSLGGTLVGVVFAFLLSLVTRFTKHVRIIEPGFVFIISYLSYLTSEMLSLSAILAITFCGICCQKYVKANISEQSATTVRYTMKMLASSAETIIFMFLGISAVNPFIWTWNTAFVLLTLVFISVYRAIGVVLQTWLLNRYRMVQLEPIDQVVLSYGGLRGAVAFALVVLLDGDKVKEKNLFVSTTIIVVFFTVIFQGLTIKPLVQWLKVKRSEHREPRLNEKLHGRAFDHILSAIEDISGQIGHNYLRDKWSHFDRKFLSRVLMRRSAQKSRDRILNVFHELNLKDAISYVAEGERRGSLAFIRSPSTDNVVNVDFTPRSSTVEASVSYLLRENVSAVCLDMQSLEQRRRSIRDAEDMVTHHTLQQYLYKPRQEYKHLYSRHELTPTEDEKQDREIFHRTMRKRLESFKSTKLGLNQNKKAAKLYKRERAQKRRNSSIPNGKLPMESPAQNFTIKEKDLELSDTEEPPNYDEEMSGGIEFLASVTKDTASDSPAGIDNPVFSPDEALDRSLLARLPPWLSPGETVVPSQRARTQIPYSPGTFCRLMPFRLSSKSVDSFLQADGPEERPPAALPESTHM
Description: Cell-based activity under Prompt Conditions. Rat or human NHE3-mediated Na^+-dependent H antiport was measured using a modification of the pH sensitive dye method originally reported by Paradiso (PNAS USA. 81:7436-7440, 1984). Opossum kidney (OK) cells were obtained from the ATCC and propagated per their instructions. The rat NHE3 gene (GenBank M85300) or the human NHE3 gene (GenBank NM_004174.1) was introduced into OK cells via electroporation, and cells were seeded into 96 well plates and grown overnight. Medium was aspirated from the wells, cells were washed twice with NaCl-HEPES buffer (100 mM NaCl, 50 mM HEPES, 10 mM glucose, 5 mM KCl, 2 mM CaCl2, 1 mM MgCl2, pH 7.4), then incubated for 30 min at room temperature with NH4Cl-HEPES buffer (20 mM NH4Cl, 80 mM NaCl, 50 mM HEPES, 5 mM KCl, 2 mM CaCl2, 1 mM MgCl2, pH 7.4) containing 5 μM bis(acetoxymethyl) 3,3′-(3′,6′-bis(acetoxymethoxy)-5-((acetoxymethoxy)carbonyl)-3-oxo-3H-spiro[isobenzofuran-1,9′-xanthene]-2′,7′-diyl)dipropanoate (BCECF-AM).
Cells were washed twice with Ammonium free, Na^+-free HEPES (100 mM choline, 50 mM HEPES, 10 mM glucose, 5 mM KCl, 2 mM CaCl2, 1 mM MgCl2, pH 7.4) and incubated in the same buffer for 10 minutes at room temperature to lower intracellular pH. […] Initial rates were plotted as the average 2 or more replicates, and pIC50 values were estimated using GraphPad Prism.
Cell-based activity of NHE3 Activity under ‘Prompt’ Conditions. This assay was performed as described in Example 1 (supra).

[3] = tested on: absorption of sodium from the intestinal lumen; assay: Inhibition of intestinal sodium absorption: urinary sodium (uNa) 16 h after single oral dose in rats; type: in vivo, rat; conditions: oral gavage, 16 h post-dose
Procedure, shortened: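 Urinary sodium mass over the 16 h after one oral gavage dose, measured by cation-exchange ion chromatography, reported as percent of water-vehicle group; ANOVA plus Dunnett's post hoc test. Groups of six 8-week-old Sprague-Dawley rats, housed individually in metabolic cages post-dose, fed and watered freely.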

[4] = tested on: phosphorus and calcium levels in the urine of rats; assay: Urinary excretion of phosphate and calcium in rats (16 h overnight urine); type: in vivo, rat; conditions: rats, oral gavage, 16 h post-dose
[5] = tested on: absorption of sodium from the intestinal lumen; assay: Fecal form score (FFS) 16 h after oral dose in rats; type: in vivo, rat; conditions: oral gavage, 16 h post-dose, scale 1-5
Procedure, shortened: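 Fecal form was scored at 16 h post-dose on a 1–5 wetness scale (normal pellet to liquid stream), with two independent observations averaged across six rats per group. Animals were 8-week-old Sprague-Dawley rats given test compound or water orally in the late afternoon and kept in metabolic cages.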

T1 sequence (P26433 29-831): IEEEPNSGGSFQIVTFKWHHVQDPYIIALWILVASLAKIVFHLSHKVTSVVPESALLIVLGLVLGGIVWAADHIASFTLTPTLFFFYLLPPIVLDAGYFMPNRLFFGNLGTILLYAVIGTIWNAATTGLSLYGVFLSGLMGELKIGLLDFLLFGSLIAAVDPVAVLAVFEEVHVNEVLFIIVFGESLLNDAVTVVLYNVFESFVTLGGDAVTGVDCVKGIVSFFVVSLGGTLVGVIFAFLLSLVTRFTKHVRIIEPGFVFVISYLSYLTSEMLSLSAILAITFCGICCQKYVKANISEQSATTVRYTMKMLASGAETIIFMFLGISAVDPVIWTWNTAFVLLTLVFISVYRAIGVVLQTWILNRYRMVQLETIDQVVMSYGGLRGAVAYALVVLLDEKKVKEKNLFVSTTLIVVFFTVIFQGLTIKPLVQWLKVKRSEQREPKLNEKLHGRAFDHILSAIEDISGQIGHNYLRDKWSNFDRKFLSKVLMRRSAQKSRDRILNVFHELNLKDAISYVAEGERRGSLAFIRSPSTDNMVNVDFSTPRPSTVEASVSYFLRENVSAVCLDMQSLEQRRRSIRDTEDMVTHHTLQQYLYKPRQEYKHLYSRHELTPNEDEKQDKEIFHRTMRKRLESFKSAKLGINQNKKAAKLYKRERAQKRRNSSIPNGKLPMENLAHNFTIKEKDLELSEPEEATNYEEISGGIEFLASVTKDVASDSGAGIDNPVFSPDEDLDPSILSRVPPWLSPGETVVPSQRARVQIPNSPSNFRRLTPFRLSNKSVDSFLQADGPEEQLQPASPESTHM

Row | SMILES | Prompt Rat NHE3 pIC50 [1] | Prompt Human NHE3 pIC50 [2] | IC50 ([1]; read-out: Prompt Rat NHE3 pIC50 (converted)) [nM] | Urine Na % of control ([3]; dose 1 mg/kg) [%] | Urine Na % of control ([3]; dose 3 mg/kg) [%] | Urine Na % of control ([3]; dose 10 mg/kg) [%] | Urine P % of control ([4]; dose 1 mg/kg) [%] | Urine P % of control ([4]; dose 3 mg/kg) [%] | Urine P % of control ([4]; dose 10 mg/kg) [%] | Fecal Form Score average ([5]; dose 1 mg/kg) | Fecal Form Score average ([5]; dose 3 mg/kg) | Fecal Form Score average ([5]; dose 10 mg/kg) | Urine Na % of control ([3]; dose 30 mg/kg) [%] | Urine P % of control ([4]; dose 30 mg/kg) [%] | Fecal Form Score average ([5]; dose 30 mg/kg)
1 | CN1Cc2c(Cl)cc(Cl)cc2[C@H](c2cccc(S(=O)(=O)NCCOCCOCCNC(=O)NCCC[N+](C)(CCCNC(=O)NCCOCCOCCNS(=O)(=O)c3cccc([C@@H]4CN(C)Cc5c(Cl)cc(Cl)cc54)c3)CCCNC(=O)NCCOCCOCCNS(=O)(=O)c3cccc([C@@H]4CN(C)Cc5c(Cl)cc(Cl)cc54)c3)c2)C1 [compound 109] | 7.40 | 8.10 |  | 64 | 52 | 28 | 65 | 51 | 52 | 1 | 2 | 4 |  |  | 
2 | CC(C)(C(=O)NCCOCCOCCOCCNS(=O)(=O)c1ccc(O[C@H]2c3ccccc3C[C@@H]2N2CCCCC2)cc1)C(=O)NCCOCCOCCOCCNS(=O)(=O)c1ccc(O[C@H]2c3ccccc3C[C@@H]2N2CCCCC2)cc1 [compound 119] | 8.70 | 7.80 |  |  |  | 43 |  |  | 52 |  |  | 1 |  |  | 
3 | CN1Cc2c(Cl)cc(Cl)cc2[C@H](c2cccc(S(=O)(=O)NCCOCCOCCOCCNC(=O)CN3CCN(c4nc(N5CCN(CC(=O)NCCOCCOCCOCCNS(=O)(=O)c6cccc([C@@H]7CN(C)Cc8c(Cl)cc(Cl)cc87)c6)CC5)nc(N5CCN(CC(=O)NCCOCCOCCOCCNS(=O)(=O)c6cccc([C@@H]7CN(C)Cc8c(Cl)cc(Cl)cc87)c6)CC5)n4)CC3)c2)C1 [compound 69] | 6.60 | 6.70 |  |  |  | 82 |  |  | 78 |  |  | 1 |  |  | 
4 | CN1Cc2c(Cl)cc(Cl)cc2[C@H](c2cccc(S(=O)(=O)NCCOCCOCCN(C)C(=O)CCC(N)(CCC(=O)N(C)CCOCCOCCNS(=O)(=O)c3cccc([C@@H]4CN(C)Cc5c(Cl)cc(Cl)cc54)c3)CCC(=O)N(C)CCOCCOCCNS(=O)(=O)c3cccc([C@@H]4CN(C)Cc5c(Cl)cc(Cl)cc54)c3)c2)C1 [compound 175] | 7.80 | 7.40 |  |  | 102 |  |  | 48 |  |  | 1 |  |  |  | 
5 | CC(=O)C(CCC(=O)NCCOCCOCCNS(=O)(=O)c1cccc([C@@H]2CN(C)Cc3c(Cl)cc(Cl)cc32)c1)(CCC(=O)NCCOCCOCCNS(=O)(=O)c1cccc([C@@H]2CN(C)Cc3c(Cl)cc(Cl)cc32)c1)CCC(=O)NCCOCCOCCNS(=O)(=O)c1cccc([C@@H]2CN(C)Cc3c(Cl)cc(Cl)cc32)c1 [compound 169] | 6.50 | 6.20 |  |  | 42 |  |  | 64 |  |  | 2 |  |  |  | 
6 | N=C(N)Nc1nc(-c2cccc(N3CCN(CCOCCOCCOCCNC(=O)CCOCCOCCOCCOCCOCCOCCOCCC(=O)NCCOCCOCCOCCN4CCN(c5cccc(-c6nc(NC(=N)N)nc7ccc(Cl)cc67)c5)CC4)CC3)c2)c2cc(Cl)ccc2n1 [compound 32] | 7.30 | 8.40 |  |  |  | 128 |  |  | 122 |  |  | 1 |  |  | 
7 | N=C(N)Nc1nc(-c2ccc(N3CCN(CCOCCOCCOCCNC(=O)CCOCCOCCOCCOCCOCCC(=O)NCCOCCOCCOCCN4CCN(c5ccc(-c6nc(NC(=N)N)nc7ccc(Cl)cc67)cc5)CC4)CC3)cc2)c2cc(Cl)ccc2n1 [compound 24] | 7.68 | 8.58 |  |  |  | 100 |  |  | 80 |  |  | 1 | 27 | 70 | 3

Now from value to molecule, other results behind:

Row | Prompt Rat NHE3 pIC50 [1] | Prompt Human NHE3 pIC50 [2] | IC50 ([1]; read-out: Prompt Rat NHE3 pIC50 (converted)) [nM] | SMILES | Urine Na % of control ([3]; dose 1 mg/kg) [%] | Urine Na % of control ([3]; dose 3 mg/kg) [%] | Urine Na % of control ([3]; dose 10 mg/kg) [%] | Urine P % of control ([4]; dose 1 mg/kg) [%] | Urine P % of control ([4]; dose 3 mg/kg) [%] | Urine P % of control ([4]; dose 10 mg/kg) [%] | Fecal Form Score average ([5]; dose 1 mg/kg) | Fecal Form Score average ([5]; dose 3 mg/kg) | Fecal Form Score average ([5]; dose 10 mg/kg) | Urine Na % of control ([3]; dose 30 mg/kg) [%] | Urine P % of control ([4]; dose 30 mg/kg) [%] | Fecal Form Score average ([5]; dose 30 mg/kg)
8 |  | 8.35 | 4.47 | O=C(NCCCCNC(=O)NCCOCCOCCNS(=O)(=O)c1ccc(O[C@H]2c3ccccc3C[C@@H]2N2CCCCC2)cc1)NCCOCCOCCNS(=O)(=O)c1ccc(O[C@H]2c3ccccc3C[C@@H]2N2CCCCC2)cc1 [compound 66] |  |  | 35 |  |  | 30 |  |  | 1 |  |  | 
9 | 7.80 | 8.35 |  | CN1Cc2c(Cl)cc(Cl)cc2[C@H](c2cccc(S(=O)(=O)N(CCO)CCOCCOCCNC(=O)NCCCN(CCCNC(=O)NCCOCCOCCN(CCO)S(=O)(=O)c3cccc([C@@H]4CN(C)Cc5c(Cl)cc(Cl)cc54)c3)CCCNC(=O)NCCOCCOCCN(CCO)S(=O)(=O)c3cccc([C@@H]4CN(C)Cc5c(Cl)cc(Cl)cc54)c3)c2)C1 [compound 146] |  | 70 |  |  | 58 |  |  | 2 |  |  |  | 
10 | <5.00 | <5.00 |  | CN1Cc2c(Cl)cc(Cl)cc2C(c2cccc(S(=O)(=O)NCCOCCOCCOCCNC(=O)CCC(CCC(=O)NCCOCCOCCOCCNS(=O)(=O)c3cccc([C@@H]4CN(C)Cc5c(Cl)cc(Cl)cc54)c3)(CCC(=O)NCCOCCOCCOCCNS(=O)(=O)c3cccc([C@@H]4CN(C)Cc5c(Cl)cc(Cl)cc54)c3)NCc3ccc(-c4ccc(Cl)cc4)cc3)c2)C1 (stereo in doubt) [compound 114] |  |  | 45 |  |  | 100 |  |  | 3 |  |  | 
11 | 6.70 | 7.20 |  | CN1Cc2c(Cl)cc(Cl)cc2[C@H](c2cccc(S(=O)(=O)NCCOCCOCCNC(=O)CCC(CCC(=O)NCCOCCOCCNS(=O)(=O)c3cccc([C@@H]4CN(C)Cc5c(Cl)cc(Cl)cc54)c3)(CCC(=O)NCCOCCOCCNS(=O)(=O)c3cccc([C@@H]4CN(C)Cc5c(Cl)cc(Cl)cc54)c3)NC(=O)Cc3nnn[nH]3)c2)C1 [compound 156] |  | 13 |  |  | 67 |  |  | 3 |  |  |  | 
12 | 7.90 | 7.60 |  | CN1Cc2c(Cl)cc(Cl)cc2[C@H](c2cccc(S(=O)(=O)NCCOCCOCCNC(=O)CCC(CCC(=O)NCCOCCOCCNS(=O)(=O)c3cccc([C@@H]4CN(C)Cc5c(Cl)cc(Cl)cc54)c3)(CCC(=O)NCCOCCOCCNS(=O)(=O)c3cccc([C@@H]4CN(C)Cc5c(Cl)cc(Cl)cc54)c3)NC(=O)N[C@@H](CO)C(=O)O)c2)C1 [compound 163] |  | 27 |  |  | 48 |  |  | 2 |  |  |  | 
